Laboratory results published in US20230219956A1 (BETTA PHARMACEUTICALS CO.,LTD, priority 2019, published 2023).

Experiments:
MIA-PACA-2 cells = test: Cell proliferation assay, MIA-PACA-2 cells (Cell-titer Glo); type: cell-based; settings: Homo sapiens, 96 h incubation
Protocol: (§1) Pave the MIA-PACA-2 cells into a 96-well ultra-low adsorption plate at 600 cells, 160 μL/well. After incubating overnight, compound solutions of gradient concentration was prepared, and added 40 μL of DMSO solution of the test compound of each concentration to the cells of each well. The final concentration of the compound is 10000, 2000, 400, 80, 16, 3.2, 0.64, 0.12, 0.025, 0 nM (the final concentration of DMSO is 0.25%). Incubated for 96 h at 37° C. and 5% CO2. 50 μL of Cell-titer Glo working solution was added to each well, shaked and mixed, and incubated at room temperature for 10 minutes. The multi-functional microplate reader read the luminescence value, and converted the luminescence value reading into inhibition percentage.
(§2) Inhibition percentage=(maximum value−reading)/(maximum value−minimum value)*100.
(§3) The “maximum value” was the DMSO control, the “minimum value” indicates the cell-free control group.
(§4) Graphpad Prism software was used to perform curve fitting and obtain IC50 value.
Refer to Table 3 for the IC50 data of some compounds in the examples inhibiting MIA-PACA-2 cells.

H358 cells = test: Cell proliferation assay, H358 cells (Cell-titer Glo); type: cell-based; settings: Homo sapiens, NCI-H358, 96 h incubation
Protocol: as §1, with “the H358” for “the MIA-PACA-2”, “cells on” for “cells into”, “plate with 2000 cells and 190” for “plate at 600 cells, 160”, “added 10” for “added 40”, “10000, 3333.3, 1111.1, 370.4, 123.5, 41.2, 13.7, 4.6, 1.5,” for “10000, 2000, 400, 80, 16, 3.2, 0.64, 0.12, 0.025,”
as §2, §3, §4
Refer to table 3 for the IC50 data of some compounds in the Examples for inhibiting H358 cells.

Row | SMILES | IC50 (MIA-PACA-2 cells) | IC50 (H358 cells)
1 | C=CC(=O)N1CC2(CCN(c3nc(C4CCN(C(=O)OC)CC4)nc4c(OCC(F)F)c(-c5c(C)ccc6[nH]ncc56)c(C=C)cc34)CC2)C1 [Example 85, Methyl 4-(4-(2-acryloyl-2,7-diazazospiro [3.5]nonan-7-yl)-8-(2,2-difluoroethoxy)-7-(5-methyl-1H-indazole-4-yl)-6-vinylquinazolin-2-yl) piperidine-1-carboxylic acid] | 91.7 nM | 124 nM
2 | C=CC(=O)N1CC2(CCN(c3nc(C4CCN(C)CC4)nc4c(OCC(F)(F)F)c(-c5ccc6cn[nH]c6c5)c(C5CC5)cc34)CC2)C1 [Example 19] | 2290 nM | –
3 | C=CC(=O)N1CC2(CCN(c3nc(C4CCN(C)CC4)nc4c(OCC(F)F)c(-c5c(C)ccc6[nH]ncc56)c(C=C)cc34)CC2)C1 [Example 48, 1-(7-(8-(2,2-difluoroethoxy)-7-(5-methyl-1H-indazol-4-yl)-2-(1-methylpiperidin-4-yl)-6-vinylquinazolin-4-yl)-2,7-diazspiro [3.5]nonan-2-yl) propyl-2-en-1-one] | 9.8 nM | 11.5 nM
4 | C=CC(=O)N1CCN(c2nc(C3CCN(C)CC3)nc3c(OCC(F)(F)F)c(-c4c(C)ccc5[nH]ncc45)c(C=C)cc23)[C@@H](C)C1 [Example 52, 1-((3S)-3-methyl-4-(7-(5-methyl-1H-indazole-4-yl)-2-(1-methylpiperidin-4-yl)-8-(2,2,2-trifluoroethoxy)-6-vinylquinazolin-4-yl)piperazin-1-yl) propyl-2-en-1-one] | 114 nM | 104 nM
5 | C=CC(=O)N1CC2(CCN(c3nc(C4CCN(C)CC4)nc4c(OC)c(-c5c(C)ccc6[nH]ncc56)c(C=C)cc34)CC2)C1 [Example 13, 1-(7-(8-methoxy-7-(5-methyl-1H-indazol-4-yl)-2-(1-methylpiperidin-4-yl)-6-vinylquinazolin-4-yl)-2,7-diazaspiro[3.5]nonan-2-yl)prop-2-en-1-one] | 22 nM | 26.3 nM
6 | C=CC(=O)N1CC2(CCN(c3nc(C4CCN(C)CC4)nc4c(OCCOC)c(-c5c(C)ccc6[nH]ncc56)c(CC)cc34)CC2)C1 [Example 30] | 171 nM | 60.5 nM
7 | C=CC(=O)N1CC2(CCN(c3nc(C4CCN(C(C)CO)CC4)nc4c(OCC(F)(F)F)c(-c5c(C)ccc6[nH]ncc56)c(C=C)cc34)CC2)C1 (stereo not drawn) [Example 68, l-(7-(2-(l-(1-hydroxypropane-2-yl)piperidin-4-yl)-7-(5-methyl-1H-indazol-4-yl)-8-(2,2,2-trifluoroethoxy)-6-vinylquinazolin-4-yl)-2,7-diazspiro [3.5]nonan-2-yl) propyl-2-en-1-one] | 2.4 nM | 1.6 nM
8 | C=CC(=O)N1CCC2(CC1)CN(c1nc(C3CCN(C)CC3)nc3c(OCC(F)(F)F)c(-c4c(C)ccc5[nH]ncc45)c(C=C)cc13)C2 [Example 51, 1-(2-(7-(5-methyl-1H-indazol-4-yl)-2-(1-methylpiperidin-4-yl)-8-(2,2,2-trifluoroethoxy)-6-vinylquinazolin-4-yl)-2,7-diazspiro [3.5]nonan-2-yl) propyl-2-en-1-one] | 188 nM | 462 nM
9 | C=CC(=O)N1CC2(CCN(c3nc(C4CCNCC4)nc4c(OCC(F)(F)F)c(-c5c(C)ccc6[nH]ncc56)c(C=C)cc34)CC2)C1 [Example 63, 1-(7-(7-(5-methyl-1H-indazol-4-yl)-2-(piperidin-4-yl)-8-(2,2,2-trifluoroethoxy)-6-vinylquinazoline-4-yl)-2,7-diazaspiro[3.5]nonan-2-yl)prop-2-en-1-one] | 406 nM | 187 nM
10 | C=CC(=O)N1CC2(CCN(c3nc(C4CCN(CC(C)(C)O)CC4)nc4c(OCC(F)(F)F)c(-c5c(C)ccc6[nH]ncc56)c(CC)cc34)CC2)C1 [Example 36, 1-(7-(6-ethyl-2-(1-(2-hydroxy-2-methylpropyl)piperidin-4-yl)-7-(5-methyl-1H-indazol-4-yl)-8-(2,2,2-trifluoroethoxy)quinazolin-4-yl)-2,7-diazaspiro[3.5]nonan-2-yl) prop-2-en-1-one] | 10.1 nM | 10.6 nM
11 | C=CC(=O)N1CC2(CCN(c3nc(C4CCN(C)CC4)nc4c(OCC(F)(F)F)c(-c5ccnc6[nH]ncc56)c(C5CC5)cc34)CC2)C1 [Example 18] | 177 nM | 715 nM
12 | C=CC(=O)N1CC2(CCN(c3nc(C4CCN(C)CC4)nc4c(OCC(F)F)c(-c5c(C)ccc6[nH]ncc56)c(CC)cc34)CC2)C1 [Example 28] | 61.4 nM | 44.7 nM
13 | C=CC(=O)N1CC2(CCN(c3nc(C4CCN(C)CC4)nc4c(OC5CCC5)c(-c5c(C)ccc6[nH]ncc56)c(Cl)cc34)CC2)C1 [Example 33] | 42.9 nM | 69.7 nM
14 | C=CC(=O)N1CC2(CCN(c3nc(C4CN(C5CCOCC5)C4)nc4c(OCC(F)(F)F)c(-c5c(C)ccc6[nH]ncc56)c(CC)cc34)CC2)C1 [Example 42, 1-(7-(6-ethyl-7-(5-methyl-1H-indazole-4-yl)-2-(1-(tetrahydro-2H-pyran-4-yl)azacyclobutane-3-yl)-8-(2,2,2-trifluoroethoxy)quinazolin-4-yl)-2,7-diazspiro [3.5]nonan-2-yl) propyl-2-en-1-one] | 29.6 nM | 19.6 nM
15 | C=CC(=O)N1CC2(CCN(c3nc(C4CCN(CCS(C)(=O)=O)CC4)nc4c(OCC(F)(F)F)c(-c5c(C)ccc6[nH]ncc56)c(C=C)cc34)CC2)C1 [Example 57, 1-(7-(7-(5-methyl-1H-indazol-4-yl)-2-(1-(2-(methylsulfonyl)ethyl)piperidine-4-yl)-8-(2,2,2-trifluoroethoxy)-6-vinylquinazolin-4-yl)-2,7-diazaspiro[3.5]nonan-2-yl) prop-2-en-1-one] | 6.8 nM | 7.3 nM
16 | C=CC(=O)N1CC2(CCN(c3nc(C4CCN(C)CC4)nc4c(OCC(C)(C)O)c(-c5c(C)ccc6[nH]ncc56)c(C=C)cc34)CC2)C1 [Example 47, 1-(7-(8-(2-hydroxy-2-methylpropoxy)-7-(5-methyl-1H-indazol-4-yl)-2-(1-methylpiperidin-4-yl)-6-vinylquinazoline-4-yl)-2,7-diazaspiro[3.5]nonan-2-yl)prop-2-en-1-one] | 47.7 nM | 39 nM
17 | C=CC(=O)N1CC2(CCN(c3nc(C4CCN(C5CCN(C(=O)OCC)CC5)CC4)nc4c(OCC(F)(F)F)c(-c5c(C)ccc6[nH]ncc56)c(C=C)cc34)CC2)C1 [Example 82, Ethyl 4-(4-(2-acryloyl-2,7-diazspiro [3.5]nonan-7-yl)-7-(5-methyl-1H-indazole-4-yl)-8-(2,2,2-trifluoroethoxy) 6-vinylquinazolin-2-yl)-[1,4-bipiperidine]-1′-carboxylate] | 12.5 nM | 7.6 nM
18 | C=CC(=O)N1CC2(C1)CN(c1nc(C3CCN(C)CC3)nc3c(OCC(F)(F)F)c(-c4c(C)ccc5[nH]ncc45)c(C=C)cc13)C2 [Example 50, 1-(6-(7-(5-methyl-1H-indazol-4-yl)-2-(1-methylpiperidin-4-yl)-8-(2,2,2-trifluoroethoxy)-6-vinylquinazolin-4-yl)-2,6-diazaspiro[3.3]heptane-2-yl)prop-2-en-1-one] | 278 nM | 243 nM
19 | C=CC(=O)N1CC2(CCN(c3nc(C4CN(C5CCCC5)C4)nc4c(OCC(F)(F)F)c(-c5c(C)ccc6[nH]ncc56)c(CC)cc34)CC2)C1 [Example 44, 1-(7-(2-(1-cyclopentyl-azacyclobutane-3-yl)-6-ethyl-7-(5-methyl-1H-indazole-4-yl)-8-(2,2,2-trifluoroethoxy)quinazolin-4-yl)-2,7-diazarospiro [3.5]nonan-2-yl) propyl-2-en-1-one] | 169 nM | 155 nM
20 | C=CC(=O)N1CC2(CCN(c3nc(C4CCN(C)CC4)nc4c(Oc5c(C)ccc6[nH]ncc56)cccc34)CC2)C1 [Example 54] | 9600 nM | –
21 | C=CC(=O)N1CC2(CCN(c3nc(C4CCN(C(C)C)CC4)nc4c(OCC(F)(F)F)c(-c5c(C)ccc6[nH]ncc56)c(C=C)cc34)CC2)C1 [Example 71] | 8.3 nM | 7.4 nM
22 | C=CC(=O)N1CC2(CCN(c3nc(C4CCN(C)CC4)nc4c(OCC)c(-c5c(C)ccc6[nH]ncc56)c(Cl)cc34)CC2)C1 [Example 10, 1-(7-(6-chloro-8-ethoxy-7-(5-methyl-1H-indazol-4-yl)-2-(1-methylpiperidine-4-yl)-quinazolin-4-yl)-2,7-diazaspiro[3.5]nonan-2-yl)prop-2-en-1-one] | 25 nM | –
23 | C=CC(=O)N1CC2(CCN(c3nc(C4CCN(C)CC4)nc4c(OCC(F)(F)F)c(-c5cc(F)cc(OC)c5)c(C5CC5)cc34)CC2)C1 [Example 21] | – | 2720 nM
24 | C=CC(=O)N1CC2(CCN(c3nc(C4CCN(C)CC4)nc4c(C)c(-c5c(C)ccc6[nH]ncc56)c(C=C)cc34)CC2)C1 [Example 15, 1-(7-(8-methyl-7-(5-methyl-1H-indazol-4-yl)-2-(1-methylpiperidin-4-yl)-6-vinylquinazolin-4-yl)-2,7-diazaspiro[3.5]nonan-2-yl)prop-2-en-1-one] | 50.5 nM | –
